Patent publication US9914760B2, “Methods of identifying, isolating and using odorant and aroma receptors” (Firmenich SA, priority 2013, dated 2018)

Experiments:
[1] = tested on: olfactory sensory neurons; assay: Ca2+ imaging of dissociated olfactory sensory neurons (Fura-2); assay type: cell-based, mouse; conditions: 50 μM each; 6 independent neurons (FIG. 2)
Excerpt: The olfactory epithelium containing native olfactory neurons from a mouse was isolated and dissociated into single cells and then transferred to a dissociation buffer for a gentle mechanical and enzymatic dissociation. In order to optimize the dissociation protocol, the general procedure for making fresh dissociation buffer was followed as set forth in Araneda et al. (2004), A Pharmacological Profile of the Aldehyde Receptor Repertoire in Rat Olfactory Epithelium. Journal of Physiology: 555:743-756 with the following modifications: DNAse I instead of DNAse II, Ca2+ concentration elevated to 5 mM and pH adjusted at 7.35 at 32°. Dissociated neurons were then seeded on a coverslip allowing the screening of >2,500 cells by fluorescence microscopy. The cells were then loaded with a calcium sensitive dye (Fura-2 AM) for 30 minutes at 31° C. and transferred onto a microscope ready for screening. […]
Olfactory neurons that responded to indole and skatole were identified by stimulating receptors with 50 μm indole followed by 50 μm skatole and monitoring the intracellular Ca2+ flux indicated by changes in Fura-2 fluorescence. […] Average Fluorescence Intensity, relative fluorescent unit as a result of a ratiometric 340/380 nm recordings.

[2] = molecular target: Olfr743 (Mus musculus, UniProt L7N1Y2); assay: cell-based cAMP assay (HTRF), HEK293T co-transfected with Gαolf; conditions: for receptor activity (cAMP, HTRF): increasing concentrations, FIGS. 5A-5D
Olfr743, sequence (P38405 2-381): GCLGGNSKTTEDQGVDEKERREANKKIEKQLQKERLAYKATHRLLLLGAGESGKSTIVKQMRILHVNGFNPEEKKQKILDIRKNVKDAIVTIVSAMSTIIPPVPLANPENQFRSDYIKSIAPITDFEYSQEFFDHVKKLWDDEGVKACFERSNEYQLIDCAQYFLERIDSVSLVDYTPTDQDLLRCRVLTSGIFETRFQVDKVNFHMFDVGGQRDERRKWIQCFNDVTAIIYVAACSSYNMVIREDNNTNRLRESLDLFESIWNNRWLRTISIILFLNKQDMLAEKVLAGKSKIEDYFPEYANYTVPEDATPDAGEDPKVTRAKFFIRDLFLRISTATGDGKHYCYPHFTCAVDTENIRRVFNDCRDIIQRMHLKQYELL
Olfr743, sequence (L7N1Y2 entry or part of it): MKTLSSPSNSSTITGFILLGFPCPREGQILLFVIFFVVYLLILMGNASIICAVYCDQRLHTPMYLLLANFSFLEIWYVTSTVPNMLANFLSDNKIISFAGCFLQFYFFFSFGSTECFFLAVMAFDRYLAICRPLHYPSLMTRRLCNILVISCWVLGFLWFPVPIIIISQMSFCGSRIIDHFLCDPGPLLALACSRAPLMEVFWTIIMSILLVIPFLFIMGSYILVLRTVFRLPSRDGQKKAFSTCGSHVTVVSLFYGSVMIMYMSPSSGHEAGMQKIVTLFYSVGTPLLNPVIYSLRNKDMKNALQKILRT
Excerpt: The activity of candidate mouse receptors Olfr740 (SEQ ID NO: 1 and SEQ ID NO: 2), Olfr743 (SEQ ID NO: 5 and SEQ ID NO: 6), and Olfr746 (SEQ ID NO: 37 and SEQ ID NO: 38) to both indole and skatole malodors were confirmed in cell-based cAMP assays. In FIGS. 5A and 5B, FLAG Rho-tagged (SEQ ID 18) Olfr743 (SEQ ID NO: 6) and Olfr740 (SEQ ID NO: 2) cDNA sequences were co-transfected with Gαolf (SEQ ID NO: 21) and exposed to increasing concentrations of indole (left) or skatole (right). FIGS. 5C and 5D are repeat experiments showing similar activity of Olfr740 (SEQ ID NO: 2) with Olfr743 (SEQ ID NO: 6) with indole and skatole. In FIG. 5E, the FLAG Rho-tagged (SEQ ID 18) Olfr746 (SEQ ID NO: 38) cDNA sequence was co-transfected with Gαolf (SEQ ID NO: 21) and exposed to increasing concentrations of indole or skatole. Odorant-induced activity was detected by measuring cAMP levels in the cytosol using the HTRF approach (CisBio kit). […] Co-transfection of HEK cells with Gαolf (SEQ ID NO: 21) alone (no receptor) were used as controls for non-specific activity (control). Activity is defined as the baseline corrected HTRF ratios normalized to the highest signal in the experiment. […] All three receptors show specific dose dependent activity to the malodor compounds and, as such, validate the process for identifying receptors for these compounds. Mouse receptors Olfr740 (SEQ ID NO: 1 and SEQ ID NO: 2) and Olfr743 (SEQ ID NO: 5 and SEQ ID NO: 6) were identified from isolated olfactory neurons that responded to both indole and skatole. Mouse receptor Olfr746 (SEQ ID NO: 37 and SEQ ID NO: 38) was identified in silico by database mining using Olfr740 (SEQ ID NO: 2) and Olfr743 (SEQ ID NO: 6) as query sequences. The receptors are modified at their N-terminus with the FLAG tag and the first 20 amino acids of the bovine rhodopsin receptor (SEQ ID 18), transiently expressed in HEK 293T cells, and stimulated separately with indole and skatole to confirm their identity as bona fide indole/skatole receptors. Co-expression of the human G alpha subunit Gαolf (SEQ ID NO: 21) activates the Gs transduction pathway that leads to an internal cAMP increase upon binding to the appropriate ligand.
Once identified using the procedure outlined herein, the resulting malodor receptor cell lines can be used to screen chemical libraries for compounds that modulate their activity and possibly human perception. This experiment was performed under the same conditions as in Example 4. Cells transfected with Rho-tagged (SEQ ID NO: 18) Olfr743 (SEQ ID NO: 6) were exposed to increasing concentrations of indole in the presence or absence of 300 μM 2-actetonaphthone. […] In the presence of the antagonist compound, a rightward shift of in the dose-response curve is observed resulting in a 4 fold increase in the EC50 to indole. Activity is defined as the baseline corrected HTRF ratios normalized to the highest signal in the experiment.

Structure (SMILES)	activation of olfactory sensory neurons (intracellular Ca2+ flux, Fura-2 fluorescence) [1]	EC50 ([2]; EC50, indole alone, absence of 2-acetonaphthone) [µM]	EC50 ([2]; EC50, indole in the presence of 300 μM 2-acetonaphthone) [µM]	receptor activity (cAMP, HTRF) [2]
c1ccc2[nH]ccc2c1 [indole]	activated	54	206	dose-dependent increase of receptor activity
Cc1c[nH]c2ccccc12 [skatole, 3-methyl indole]	activated			dose-dependent increase of receptor activity
